The values that follow are results of earlier work, collected in US7399616B2, “Enzymatic synthesis of Nα-acyl-L-arginine esters” (Laboratorios Miret, S.A., priority 2002, dated 2008).

The conditions of series [1]: rats; metabolised into naturally-occurring amino acids and lauric acid, excreted as carbon dioxide and urea.
A further series deals with microorganisms. Particulars: acts over external and cytoplasmatic membrane and into cytoplasmatic medium; depends on kind of microorganism and exposure time.
The conditions of series [2]: animals and humans.

Consider `CCCCCCCCCCCC(=O)N[C@@H](CCCN=C(N)N)C(=O)OCC.Cl` [LAE, ethyl ester of the laurylamide of the L-arginine monohydrochloride], for which the absorption and metabolism entry in series [1] was “fast absorption and metabolism”. In the series with microorganisms, the “action on microorganisms (proliferation)” value is reported as “preventing their proliferation”. For the same molecule, the toxicity result in series [2] is reported as “completely harmless”.
